Experimental data published in ChEMBL document CHEMBL4130364, “4-Aminoquinoline-chalcone/-N-acetylpyrazoline conjugates: Synthesis and antiplasmodial evaluation” (Eur J Med Chem, 2017).

What was measured:
Plasmodium falciparum = assay: Antiplasmodial activity against chloroquine-resistant Plasmodium falciparum W2 after 48 hrs by YOYO-1 dye-based flow cytometry; type: functional, organism-based; conditions: W2, 48 h
HeLa = assay: Cytotoxicity against human HeLa cells assessed as reduction in cell viability after 24 hrs by trypan blue-based hemacytometer counting analysis
[1] = Selectivity index, ratio of IC50 for human HeLa cells to IC50 for chloroquine-resistant Plasmodium falciparum W2; type: toxicity; conditions: read-out: Ratio IC50

Row | Compound | IC50 (Plasmodium falciparum) [nM] | IC50 (HeLa) [nM] | selectivity ratio [1]
1 | COc1cc(C2=NN(C(C)=O)C(c3ccccc3)C2)ccc1OCc1cn(CCNc2ccnc3cc(Cl)ccc23)nn1 (stereo unspecified) | 286 |  | 
2 | COc1ccc(C2CC(c3ccc(OCc4cn(CCCNc5ccnc6cc(Cl)ccc56)nn4)cc3)=NN2C(C)=O)cc1OC (stereo unspecified) | 504 |  | 
3 | COc1ccc(/C=C/C(=O)c2ccc(OCc3cn(CCCNc4ccnc5cc(Cl)ccc45)nn3)cc2)cc1OC | > 10000 |  | 
4 | COc1ccc(C2CC(c3ccc(OCc4cn(CCNc5ccnc6cc(Cl)ccc56)nn4)c(OC)c3)=NN2C(C)=O)cc1OC (stereo unspecified) | 53.7 | 42700 | 795
5 | COc1cc(C2=NN(C(C)=O)C(c3ccccc3)C2)ccc1OCc1cn(CCCNc2ccnc3cc(Cl)ccc23)nn1 (stereo unspecified) | 77 | 46100 | 598
6 | COc1cc(C(=O)/C=C/c2cc(OC)c(OC)c(OC)c2)ccc1OCc1cn(CCCNc2ccnc3cc(Cl)ccc23)nn1 | 831 |  | 
7 | COc1ccc(/C=C/C(=O)c2ccc(OCc3cn(CCNc4ccnc5cc(Cl)ccc45)nn3)cc2)cc1 | 114 | 35600 | 311
8 | COc1ccc(C2CC(c3ccc(OCc4cn(CCCNc5ccnc6cc(Cl)ccc56)nn4)c(OC)c3)=NN2C(C)=O)cc1 (stereo unspecified) | 1570 |  | 
9 | COc1ccc(/C=C/C(=O)c2ccc(OCc3cn(CCCNc4ccnc5cc(Cl)ccc45)nn3)c(OC)c2)cc1OC | 337 |  | 
10 | COc1cc(/C=C/C(=O)c2ccc(OCc3cn(CCNc4ccnc5cc(Cl)ccc45)nn3)cc2)cc(OC)c1OC | 175 |  | 
11 | O=C(/C=C/c1ccccc1)c1ccc(OCc2cn(CCCNc3ccnc4cc(Cl)ccc34)nn2)cc1 | > 10000 |  | 
12 | COc1cc(/C=C/C(=O)c2ccc(OCc3cn(CCCNc4ccnc5cc(Cl)ccc45)nn3)cc2)cc(OC)c1OC | 5280 |  | 
13 | COc1ccc(C2CC(c3ccc(OCc4cn(CCNc5ccnc6cc(Cl)ccc56)nn4)cc3)=NN2C(C)=O)cc1 (stereo unspecified) | 131 | 29200 | 223
14 | COc1cc(C2=NN(C(C)=O)C(c3cc(OC)c(OC)c(OC)c3)C2)ccc1OCc1cn(CCCNc2ccnc3cc(Cl)ccc23)nn1 (stereo unspecified) | 1740 |  | 
15 | COc1cc(C2=NN(C(C)=O)C(c3cc(OC)c(OC)c(OC)c3)C2)ccc1OCc1cn(CCNc2ccnc3cc(Cl)ccc23)nn1 (stereo unspecified) | 139 |  | 
16 | COc1ccc(/C=C/C(=O)c2ccc(OCc3cn(CCNc4ccnc5cc(Cl)ccc45)nn3)c(OC)c2)cc1OC | 830 |  | 
17 | COc1ccc(/C=C/C(=O)c2ccc(OCc3cn(CCCNc4ccnc5cc(Cl)ccc45)nn3)cc2)cc1 | > 10000 |  | 

Row | Compound | IC50 (Plasmodium falciparum) [nM] | IC50 (HeLa) [nM] | selectivity ratio [1]
18 | COc1cc(C2CC(c3ccc(OCc4cn(CCNc5ccnc6cc(Cl)ccc56)nn4)cc3)=NN2C(C)=O)cc(OC)c1OC (stereo unspecified) | 426 |  | 
19 | COc1ccc(C2CC(c3ccc(OCc4cn(CCCNc5ccnc6cc(Cl)ccc56)nn4)cc3)=NN2C(C)=O)cc1 (stereo unspecified) | 498 |  | 
20 | CC(=O)N1N=C(c2ccc(OCc3cn(CCNc4ccnc5cc(Cl)ccc45)nn3)cc2)CC1c1ccccc1 (stereo unspecified) | 237 |  | 
21 | COc1ccc(/C=C/C(=O)c2ccc(OCc3cn(CCNc4ccnc5cc(Cl)ccc45)nn3)cc2)cc1OC | 141 | 12700 | 90
22 | COc1ccc(C2CC(c3ccc(OCc4cn(CCCNc5ccnc6cc(Cl)ccc56)nn4)c(OC)c3)=NN2C(C)=O)cc1OC (stereo unspecified) | 1680 |  | 
23 | COc1ccc(/C=C/C(=O)c2ccc(OCc3cn(CCCNc4ccnc5cc(Cl)ccc45)nn3)c(OC)c2)cc1 | > 10000 |  | 
24 | COc1cc(C(=O)/C=C/c2ccccc2)ccc1OCc1cn(CCNc2ccnc3cc(Cl)ccc23)nn1 | 355 |  | 
25 | COc1cc(C(=O)/C=C/c2cc(OC)c(OC)c(OC)c2)ccc1OCc1cn(CCNc2ccnc3cc(Cl)ccc23)nn1 | 355 |  | 
26 | COc1ccc(C2CC(c3ccc(OCc4cn(CCNc5ccnc6cc(Cl)ccc56)nn4)c(OC)c3)=NN2C(C)=O)cc1 (stereo unspecified) | 58.7 | 32800 | 558
27 | COc1cc(C2CC(c3ccc(OCc4cn(CCCNc5ccnc6cc(Cl)ccc56)nn4)cc3)=NN2C(C)=O)cc(OC)c1OC (stereo unspecified) | 2420 |  | 
28 | COc1ccc(C2CC(c3ccc(OCc4cn(CCNc5ccnc6cc(Cl)ccc56)nn4)cc3)=NN2C(C)=O)cc1OC (stereo unspecified) | 152 |  | 
29 | O=C(/C=C/c1ccccc1)c1ccc(OCc2cn(CCNc3ccnc4cc(Cl)ccc34)nn2)cc1 | 172 |  | 
30 | CC(=O)N1N=C(c2ccc(OCc3cn(CCCNc4ccnc5cc(Cl)ccc45)nn3)cc2)CC1c1ccccc1 (stereo unspecified) | 3000 |  | 
31 | COc1ccc(/C=C/C(=O)c2ccc(OCc3cn(CCNc4ccnc5cc(Cl)ccc45)nn3)c(OC)c2)cc1 | 1910 |  | 
32 | COc1cc(C(=O)/C=C/c2ccccc2)ccc1OCc1cn(CCCNc2ccnc3cc(Cl)ccc23)nn1 | 6960 |  | 
33 | C[C@@H]1CC[C@H]2[C@@H](C)C(=O)O[C@@H]3O[C@@]4(C)CC[C@@H]1[C@]32OO4 [ARTEMISININ] | 32.1 |  | 
34 | COc1cccc2c1C(=O)c1c(O)c3c(c(O)c1C2=O)C[C@@](O)(C(=O)CO)C[C@@H]3O[C@H]1C[C@H](N)[C@H](O)[C@H](C)O1 [DOXORUBICIN] |  | 8300 | 
